The results in this text go back to patent publication US11980211B2, “Verbascoside and related compounds for sweetness enhancement” (International Flavors & Fragrances Inc., priority 2018, dated 2024).

A short description of experiment [1]: Flavor profile of Luo Han Guo solution with added verbascoside or isoverbascoside. Particulars: Luo Han Guo solution (120 ppm). The protocol:
A Luo Han Guo (Biovittoria Ltd., New Zealand) solution was prepared in water (120 ppm). Verbascoside and isoverbascoside solutions were prepared as above (EXAMPLE II). The flavor profile of the Luo Han Guo solution with added verbascoside and isoverbascoside is reported in the following: […]

Experiment [2] can be described thus: Flavor profile of sucrose solution with added verbascoside or isoverbascoside. As to conditions: sucrose solution (4%). The procedure: A sucrose solution (4%) was prepared in water. Each of verbascoside and isoverbascoside solutions of different concentrations was prepared in ethanol solution in water (50%). Verbascoside and isoverbascoside were evaluated at 1 and 200 ppm, respectively.
The flavor profile of the sucrose solution with added verbascoside and isoverbascoside is reported in the following: […]

Structures are written as SMILES.

As to `CC1OC(OC2C(O)C(OCCc3ccc(O)c(O)c3)OC(CO)C2OC(=O)/C=C/c2ccc(O)c(O)c2)C(O)C(O)C1O` [Verbascoside, (E)-2-(3,4-dihydroxyphenyl)ethyl 3-O-(6-deoxy-α-L-mannopyranosyl)-4-[3-(3,4-dihydroxyphenyl)-2-propenoate]-β-D-Glucopyranoside], the “overall effect (summary)” value in experiment [1] and in experiment [2] was “exhibited particular effect in sweetness enhancement” each time.
`CC1OC(OC2C(O)C(COC(=O)/C=C/c3ccc(O)c(O)c3)OC(OCCc3ccc(O)c(O)c3)C2O)C(O)C(O)C1O` (stereo not shown) [Isoverbascoside, isoverbascoside]: the “overall effect (summary)” value is “enhanced overall mouthfeel and suppressed Luo Han Guo's lingering off-taste” in experiment [1]; “enhanced overall mouthfeel” in experiment [2].
